According to patent US8722849B2, “Polypeptides” (Novo Nordisk A/S, priority 2011, dated 2014):
Like-named read-outs stand apart in the source and are kept apart here. Starred links: 1 amine or outer side, 2 acyl side, 3 side chain; linkers in the order of their positions; H or OH if unused. Positions of bridges follow the written chain, without caps; N, C: chain ends. Residues, ends and D or L forms follow the SMILES beside them. *: point of attachment. C20 diacid = O=C(O)CCCCCCCCCCCCCCCCCCC(=O)*; γGlu = O=C(O)[C@H](CCC(=O)[*:2])N[*:1]

How the values were obtained:
[1] = target: T1, human calcitonin receptor (Homo sapiens, UniProt P30988); experiment: Assay (II)a functional CRE-luciferase assay, human calcitonin receptor; type: cell-based; conditions: Table 11; read-out: CTa receptor human EC50
T1 construct: expressed in transfected cells; host or cells: BHK570
T1 sequence (P30988 25-474): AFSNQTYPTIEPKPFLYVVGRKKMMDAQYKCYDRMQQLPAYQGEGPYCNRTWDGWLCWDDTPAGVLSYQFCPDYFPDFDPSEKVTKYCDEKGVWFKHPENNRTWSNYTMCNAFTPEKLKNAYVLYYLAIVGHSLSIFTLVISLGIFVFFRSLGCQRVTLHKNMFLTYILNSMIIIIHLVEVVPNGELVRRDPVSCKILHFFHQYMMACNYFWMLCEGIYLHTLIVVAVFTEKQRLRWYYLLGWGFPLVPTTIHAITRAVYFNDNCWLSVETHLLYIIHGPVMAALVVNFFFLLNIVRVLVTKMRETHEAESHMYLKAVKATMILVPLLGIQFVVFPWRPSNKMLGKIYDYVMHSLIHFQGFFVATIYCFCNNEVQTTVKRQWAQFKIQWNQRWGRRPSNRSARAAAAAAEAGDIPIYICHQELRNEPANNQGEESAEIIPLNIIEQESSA

[2] = Assay (IV) determination of solubility; type: physicochemical
Procedure, shortened: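 Stock ~500 nmol/ml in water; 1:1 with 100 mM buffer, pH 3.0–8.0 (glycylglycine ≤5.0, bistrispropane ≥6.0); 18 h RT; spin; HPLC quantitation of soluble polypeptide.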

[3] = target: T2, human amylin receptor (amylin 3(a) receptor: human calcitonin receptor + RAMP-3) (Homo sapiens, UniProt O60896+P30988); experiment: Assay (II)a functional CRE-luciferase assay, human amylin receptor; type: cell-based; conditions: Table 2; BHK amylin 3(a)-receptor/CRE-luc cells
T2 construct: expressed in transfected cells; host or cells: BHK570
T2 sequence (P30988 25-474): T1 sequence (P30988 25-474)
T2 sequence (O60896 24-148 partner): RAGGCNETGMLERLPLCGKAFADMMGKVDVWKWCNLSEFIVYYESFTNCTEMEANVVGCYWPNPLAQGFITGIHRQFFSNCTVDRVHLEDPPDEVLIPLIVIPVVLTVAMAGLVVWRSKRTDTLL

[4] = Assay (III) ThT fibrillation assay for physical stability; type: physicochemical
Procedure, shortened: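 Freshly prepared formulations, pH-adjusted, with 1 μM ThT; four or eight replicates incubated at 37 °C under 960 rpm orbital shaking. Fluorescence (ex 444/em 485 nm) read every 20 min; […]. Peptide concentration measured by RP-HPLC before and after the run.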

[5] = bistrispropane buffer, pH 6, pH 6.0, read-out: Solubility pH 6.0
[6] = bistrispropane buffer, pH 6.5, pH 6.5, read-out: Solubility pH 6.5
[7] = bistrispropane buffer, pH 7, pH 7.0, 18 hours at room temperature, Table 3, read-out: Solubility pH 7.0
[8] = bistrispropane buffer, pH 7, pH 7.0, Table 8, read-out: Solubility pH 7.0
[9] = bistrispropane buffer, pH 7, pH 7.0, Table 9, read-out: Solubility pH 7.0
[10] = bistrispropane buffer, pH 7, pH 7.0, read-out: Solubility pH 7.0
[11] = bistrispropane buffer, pH 7.5, pH 7.5, Table 9, read-out: Solubility pH 7.5
[12] = bistrispropane buffer, pH 7.5, pH 7.5, read-out: Solubility pH 7.5
[13] = bistrispropane buffer, pH 8, pH 8.0, read-out: Solubility pH 8.0
[14] = glycylglycine buffer, pH 3, pH 3.0, read-out: Solubility pH 3.0
[15] = glycylglycine buffer, pH 4, pH 4.0, 18 hours at room temperature, Table 2, read-out: Solubility pH 4.0
[16] = glycylglycine buffer, pH 4, pH 4.0, read-out: Solubility pH 4.0
[17] = glycylglycine buffer, pH 5, pH 5.0, read-out: Solubility pH 5.0

Compound	EC50 [1]	solubility at 18 h [2, 5]	solubility at 18 h [2, 6]	solubility at 18 h [2, 7]	solubility at 18 h [2, 8]	solubility at 18 h [2, 9]	solubility at 18 h [2, 10]	solubility at 18 h [2, 11]	solubility at 18 h [2, 12]	solubility at 18 h [2, 13]	solubility at 18 h [2, 14]	solubility at 18 h [2, 15]	solubility at 18 h [2, 16]	solubility at 18 h [2, 17]	EC50 [3]	ThT pH 4.0 lag time ([4]; Table 8)	ThT pH 4.0 lag time ([4]; Table 9)	ThT pH 4.0 lag time ([4]; ThT fibrillation assay)	ThT pH 4.0 lag time (h) ([4]; ThT fibrillation assay)
CC[C@H](C)[C@H](NC(=O)[C@@H]1CCCN1C(=O)CNC(=O)[C@H](Cc1ccccc1)NC(=O)[C@H](CC(N)=O)NC(=O)[C@H](CCC(N)=O)NC(=O)[C@H](CO)NC(=O)[C@H](CO)NC(=O)[C@H](Cc1c[nH]cn1)NC(=O)[C@H](CCCNC(=N)N)NC(=O)[C@H](CC(C)C)NC(=O)[C@H](Cc1ccccc1)NC(=O)[C@H](CCC(=O)O)NC(=O)[C@H](C)NC(=O)[C@H](CC(C)C)NC(=O)[C@H](CCCNC(=N)N)NC(=O)[C@H](CCC(N)=O)NC(=O)[C@@H](NC(=O)[C@H](C)NC(=O)[C@@H]1CSSC[C@H](NC(=O)[C@H](CCC(=O)O)NC(=O)[C@H](CCCNC(=N)N)NC(=O)[C@H](CCC(=O)O)NC(=O)CC[C@H](NC(=O)CCCCCCCCCCCCCCCCCCC(=O)O)C(=O)O)C(=O)N[C@@H](CC(N)=O)C(=O)N[C@@H]([C@@H](C)O)C(=O)N[C@@H](C)C(=O)N[C@@H]([C@@H](C)O)C(=O)N1)[C@@H](C)O)C(=O)N[C@@H](CC(C)C)C(=O)N1CCC[C@H]1C(=O)N1CCC[C@H]1C(=O)N[C@H](C(=O)N[C@@H](CC(N)=O)C(=O)N[C@H](C(=O)NCC(=O)N[C@@H](CO)C(=O)N[C@@H](CCC(N)=O)C(=O)N[C@H](C(=O)N1CCC[C@H]1C(N)=O)[C@@H](C)O)C(C)C)[C@@H](C)O [Example 162, N-alpha-[(S)-4-Carboxy-4-(19-carboxynonadecanoylamino)butyryl]-Glu-Arg-[Glu1,Glu14,Arg17,Gln21,Gln35,Pro37]-pramlintide] ({C20 diacid-γGlu}-ERECNTATCATQRLAEFLRHSSQNFGPILPPTNVGSQTP-NH2; disulfide 4-9)	2.19 nM	> 200 µM	> 200 µM	> 200 µM	> 200 µM	> 200 µM	> 200 µM	> 200 µM	> 200 µM	> 200 µM	> 200 µM	> 200 µM	> 200 µM	> 200 µM	0.411 nM	>45 h	>45 h	>45 h	>45 h
CC[C@H](C)[C@H](NC(=O)[C@@H]1CCCN1C(=O)CNC(=O)[C@H](Cc1ccccc1)NC(=O)[C@H](CC(N)=O)NC(=O)[C@H](CCC(N)=O)NC(=O)[C@H](CO)NC(=O)[C@H](CO)NC(=O)[C@H](Cc1c[nH]cn1)NC(=O)[C@H](CCCNC(=N)N)NC(=O)[C@H](CC(C)C)NC(=O)[C@H](Cc1ccccc1)NC(=O)[C@H](CCC(=O)O)NC(=O)[C@H](C)NC(=O)[C@H](CC(C)C)NC(=O)[C@H](CCCNC(=N)N)NC(=O)[C@H](CCC(N)=O)NC(=O)[C@@H](NC(=O)[C@H](C)NC(=O)[C@@H]1CSSC[C@H](NC(=O)[C@H](CCC(=O)O)NC(=O)[C@H](CCCNC(=N)N)NC(=O)[C@H](CCC(=O)O)NC(=O)CC[C@H](NC(=O)CCCCCCCCCCCCCCCCCCC(=O)O)C(=O)O)C(=O)N[C@@H](CC(N)=O)C(=O)N[C@@H]([C@@H](C)O)C(=O)N[C@@H](C)C(=O)N[C@@H]([C@@H](C)O)C(=O)N1)[C@@H](C)O)C(=O)N[C@@H](CC(C)C)C(=O)N1CCC[C@H]1C(=O)N1CCC[C@H]1C(=O)N[C@H](C(=O)N[C@@H](CCC(N)=O)C(=O)N[C@H](C(=O)NCC(=O)N[C@@H](CO)C(=O)N[C@@H](CCC(N)=O)C(=O)N[C@H](C(=O)N1CCC[C@H]1C(N)=O)[C@@H](C)O)C(C)C)[C@@H](C)O [Example 163, N-alpha-[(S)-4-Carboxy-4-(19-carboxynonadecanoylamino)butyryl]-Glu-Arg-[Glu1,Glu14,Arg17,Gln21,Gln31,Gln35,Pro37]-pramlintide] ({C20 diacid-γGlu}-ERECNTATCATQRLAEFLRHSSQNFGPILPPTQVGSQTP-NH2; disulfide 4-9)	3.71 nM	> 200 µM	> 200 µM	> 200 µM	> 200 µM	> 200 µM	> 200 µM	> 200 µM	> 200 µM	> 200 µM	> 200 µM	> 200 µM	> 200 µM	> 200 µM	1.06 nM	>45 h	>45 h	>45 h	>45 h
CC[C@H](C)[C@H](NC(=O)[C@@H]1CCCN1C(=O)CNC(=O)[C@H](Cc1ccccc1)NC(=O)[C@H](CCC(N)=O)NC(=O)[C@H](CCC(N)=O)NC(=O)[C@H](CO)NC(=O)[C@H](CO)NC(=O)[C@H](Cc1c[nH]cn1)NC(=O)[C@H](CCCNC(=N)N)NC(=O)[C@H](CC(C)C)NC(=O)[C@H](Cc1ccccc1)NC(=O)[C@H](CCC(=O)O)NC(=O)[C@H](C)NC(=O)[C@H](CC(C)C)NC(=O)[C@H](CCCNC(=N)N)NC(=O)[C@H](CCC(N)=O)NC(=O)[C@@H](NC(=O)[C@H](C)NC(=O)[C@@H]1CSSC[C@H](NC(=O)[C@H](CCC(=O)O)NC(=O)[C@H](CCCNC(=N)N)NC(=O)[C@H](CCC(=O)O)NC(=O)CC[C@H](NC(=O)CCCCCCCCCCCCCCCCCCC(=O)O)C(=O)O)C(=O)N[C@@H](CC(N)=O)C(=O)N[C@@H]([C@@H](C)O)C(=O)N[C@@H](C)C(=O)N[C@@H]([C@@H](C)O)C(=O)N1)[C@@H](C)O)C(=O)N[C@@H](CC(C)C)C(=O)N1CCC[C@H]1C(=O)N1CCC[C@H]1C(=O)N[C@H](C(=O)N[C@@H](CCC(N)=O)C(=O)N[C@H](C(=O)NCC(=O)N[C@@H](CO)C(=O)N[C@@H](CCC(N)=O)C(=O)N[C@H](C(=O)N1CCC[C@H]1C(N)=O)[C@@H](C)O)C(C)C)[C@@H](C)O [Example 164, N-alpha-[(S)-4-Carboxy-4-(19-carboxynonadecanoylamino)butyryl]-Glu-Arg-[Glu1,Glu14,Arg17,Gln21,Gln22,Gln31,Gln35,Pro37]-pramlintide] ({C20 diacid-γGlu}-ERECNTATCATQRLAEFLRHSSQQFGPILPPTQVGSQTP-NH2; disulfide 4-9 (inferred))	3.57 nM	> 200 µM	> 200 µM	> 200 µM	> 200 µM	> 200 µM	> 200 µM	> 200 µM	> 200 µM	> 200 µM	> 200 µM	> 200 µM	> 200 µM	> 200 µM	1.71 nM	>45 h	>45 h	>45 h	>45 h
